Source: the NIST ThermoML archive (doi:10.1016/j.jct.2006.07.017)
Numbers after ± are expanded uncertainties.

Experiment: xn = mol fraction of the nth substance listed
Settings: 101 kPa, Liquid

Cc1cccc(C)c1 [1,3-dimethylbenzene] + CN(C)C=O
Settings | mass density [kg/m3]
323.15 K, x1 = 0.4932 | 872.11 ± 0.84
323.15 K, x1 = 0.5641 | 866.62 ± 0.9
323.15 K, x1 = 0.6247 | 862.17 ± 0.95
323.15 K, x1 = 0.6951 | 857.22 ± 1
323.15 K, x1 = 0.7554 | 853.17 ± 1.1
323.15 K, x1 = 0.8251 | 848.68 ± 1.1
323.15 K, x1 = 0.8812 | 845.18 ± 1.2
323.15 K, x1 = 0.9572 | 840.6 ± 1.3
333.15 K, x1 = 0.0547 | 904.33 ± 0.57
333.15 K, x1 = 0.1122 | 897.9 ± 0.61
333.15 K, x1 = 0.1815 | 890.59 ± 0.65
333.15 K, x1 = 0.2551 | 883.29 ± 0.7
333.15 K, x1 = 0.3151 | 877.68 ± 0.74
333.15 K, x1 = 0.3821 | 871.76 ± 0.79
333.15 K, x1 = 0.4554 | 865.64 ± 0.84
333.15 K, x1 = 0.5054 | 861.68 ± 0.88
333.15 K, x1 = 0.5625 | 857.35 ± 0.93
333.15 K, x1 = 0.6262 | 852.72 ± 0.98
333.15 K, x1 = 0.6785 | 849.09 ± 1
333.15 K, x1 = 0.7412 | 844.91 ± 1.1
333.15 K, x1 = 0.8054 | 840.8 ± 1.1
333.15 K, x1 = 0.8714 | 836.74 ± 1.2
333.15 K, x1 = 0.9548 | 831.81 ± 1.3
343.15 K, x1 = 0.0625 | 893.44 ± 0.61
343.15 K, x1 = 0.1214 | 886.95 ± 0.64
343.15 K, x1 = 0.1851 | 880.31 ± 0.68
343.15 K, x1 = 0.2451 | 874.4 ± 0.72
343.15 K, x1 = 0.3121 | 868.17 ± 0.76
343.15 K, x1 = 0.3852 | 861.78 ± 0.82
343.15 K, x1 = 0.4451 | 856.83 ± 0.86
343.15 K, x1 = 0.5054 | 852.1 ± 0.91
343.15 K, x1 = 0.5641 | 847.72 ± 0.95
343.15 K, x1 = 0.6214 | 843.62 ± 1
343.15 K, x1 = 0.6885 | 839.06 ± 1.1
343.15 K, x1 = 0.7451 | 835.37 ± 1.1
343.15 K, x1 = 0.8125 | 831.16 ± 1.2
343.15 K, x1 = 0.8821 | 827 ± 1.2
343.15 K, x1 = 0.9525 | 822.95 ± 1.3
353.15 K, x1 = 0.0521 | 884.42 ± 0.63
353.15 K, x1 = 0.112 | 877.82 ± 0.67
353.15 K, x1 = 0.1785 | 870.9 ± 0.71
353.15 K, x1 = 0.2352 | 865.33 ± 0.74
353.15 K, x1 = 0.2958 | 859.69 ± 0.78
353.15 K, x1 = 0.3562 | 854.38 ± 0.82
353.15 K, x1 = 0.4215 | 848.95 ± 0.87
353.15 K, x1 = 0.4854 | 843.93 ± 0.92
353.15 K, x1 = 0.5412 | 839.75 ± 0.96
353.15 K, x1 = 0.6121 | 834.72 ± 1
353.15 K, x1 = 0.6858 | 829.79 ± 1.1
353.15 K, x1 = 0.7551 | 825.38 ± 1.1
353.15 K, x1 = 0.8254 | 821.12 ± 1.2
353.15 K, x1 = 0.8851 | 817.65 ± 1.3
353.15 K, x1 = 0.9512 | 813.95 ± 1.3
